TGI data for 16 compounds are collected here from PubChem BioAssay (NCI).

Each structure is given as a SMILES string.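 In this assay, cells in 96-well plates receive the compound at five concentrations for 48 hours. Endpoints are linearly interpolated between the surrounding concentrations. TGI denotes the concentration required for complete inhibition of growth.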

One experiment relates to SF-295 CNS. The experiment can be described thus: NCI tumour cell line growth inhibition, 48 h.
Take `O=C(CCc1cc(O)ccc1O)OCCc1ccccc1`: the TGI was greater than 100 µM.
The same measure, in the same setting: the same measure for `COC(=O)c1c(C#N)[nH]c(-c2ccsc2)c1C(=O)OC`: greater than 100 µM.
In the case of `CC(=O)O[C@H]1CCC2[C@@H]3CCC4Nc5oncc5C[C@]4(C)C3CC[C@@]21C` (some centres undefined), the TGI was greater than 10 µM.
Same read-out and setting: the same measure for `Cc1c(O)c(OC2OC(CO)C(O)C(O)C2O)cc2c1CC[C@@H]1C2(C)C(=O)C[C@]2(C)[C@@H]([C@@](C)(O)C(=O)CCC(C)(C)O)[C@H](O)C[C@@]12C` (some centres undefined): greater than 100 µM; for `Cc1cn(C2CC(O)C(CO[Si](C)(C)C(C)(C)C)OC2OC(C)C)c(=O)[nH]c1=O` (centres undefined): greater than 100 µM; for `O=c1oc2ccccc2cc1-c1cn2ccccc2n1`: 13.5 µM.
Same read-out and setting: the same measure for `COC(=O)[C@H](Cc1c[nH]c2ccccc12)NC(=O)c1ccc(CNC(=O)/C(C)=C/c2ccccc2)cc1`: greater than 100 µM.

The subject of another experiment is SK-MEL-2 melanoma. Kind of experiment: NCI tumour cell line growth inhibition, 48 h.
The compound `C#CC(C)(C)OC(=O)C(=[N+]=[N-])C(C)=O` had a TGI greater than 10 µM.
On the same count and under the same terms, for `CCOC(=O)/C=C/[C@H](O[Si](CC)(CC)CC)C(C)(C)C` the value was 80.6 µM; for `CC(C)N(C(=O)C1(O)c2ccccc2C=Cc2ccccc21)C(C)C`, 30.7 µM.
The same measure, in the same setting: the same measure for `COc1ccc2c(c1)nc1n2C(c2c(Cl)cccc2Cl)SC1` (centres undefined): greater than 74 µM.
On the same count and under the same terms, the same measure for `CCCCSC1=N/C(=C\c2ccco2)C(Cl)=N1`: greater than 100 µM; for `CC(=O)O[C@H]1CC[C@@]2(C)C(=CC[C@@H]3[C@@H]2CC[C@]2(C)NC(=O)/C(=C\c4ccccc4)C[C@@H]32)C1`: 39.8 µM.
In the case of `O=C(CCc1cc(O)ccc1O)OCCc1ccccc1`, the TGI was greater than 100 µM.
The same measure, in the same setting: the same measure for `O=C(N[C@@H](c1ccccc1)[C@@H](O)C(=O)OCc1ccc([N+](=O)[O-])cc1)c1ccccc1`: greater than 100 µM.
The same measure, in the same setting: the same measure for `COC(=O)c1c(C#N)[nH]c(-c2ccsc2)c1C(=O)OC`: greater than 100 µM; for `CC(=O)O[C@H]1CCC2[C@@H]3CCC4Nc5oncc5C[C@]4(C)C3CC[C@@]21C` (some centres undefined): greater than 10 µM; for `Cc1c(O)c(OC2OC(CO)C(O)C(O)C2O)cc2c1CC[C@@H]1C2(C)C(=O)C[C@]2(C)[C@@H]([C@@](C)(O)C(=O)CCC(C)(C)O)[C@H](O)C[C@@]12C` (some centres undefined): greater than 100 µM.
Still for that read-out and setting: the same measure for `Cc1cn(C2CC(O)C(CO[Si](C)(C)C(C)(C)C)OC2OC(C)C)c(=O)[nH]c1=O` (centres undefined): greater than 100 µM.
Turning to `O=c1oc2ccccc2cc1-c1cn2ccccc2n1`, the TGI came out at 14.4 µM.
`COC(=O)[C@H](Cc1c[nH]c2ccccc12)NC(=O)c1ccc(CNC(=O)/C(C)=C/c2ccccc2)cc1`: the TGI turned out to be 27.2 µM.

In the next experiment the test system is SK-MEL-5 melanoma. The experiment can be described thus: NCI tumour cell line growth inhibition, 48 h.
Compound `Cc1nn(C(=O)Cc2ccccc2)c2c1C(c1ccc(Cl)cc1)SC(N)=N2` (centres undefined) returned a TGI greater than 100 µM.
The same measure, in the same setting: the same measure for `C#CC(C)(C)OC(=O)C(=[N+]=[N-])C(C)=O`: greater than 10 µM.
Still for that read-out and setting: for `CCOC(=O)/C=C/[C@H](O[Si](CC)(CC)CC)C(C)(C)C` the value was greater than 100 µM; for `CC(C)N(C(=O)C1(O)c2ccccc2C=Cc2ccccc21)C(C)C`, 29.8 µM; for `COc1ccc2c(c1)nc1n2C(c2c(Cl)cccc2Cl)SC1` (centres undefined), greater than 100 µM.
On the same count and under the same terms, for `CCCCCC(=O)CCCCCCCC(O)CC(=O)OCC` (centres undefined) the value was greater than 100 µM; for `CCCCSC1=N/C(=C\c2ccco2)C(Cl)=N1`, greater than 100 µM.
Compound `CC(=O)O[C@H]1CC[C@@]2(C)C(=CC[C@@H]3[C@@H]2CC[C@]2(C)NC(=O)/C(=C\c4ccccc4)C[C@@H]32)C1` had a TGI of 23.2 µM.
Same read-out and setting: for `O=C(CCc1cc(O)ccc1O)OCCc1ccccc1` the value was greater than 55.6 µM; for `O=C(N[C@@H](c1ccccc1)[C@@H](O)C(=O)OCc1ccc([N+](=O)[O-])cc1)c1ccccc1`, greater than 100 µM; for `COC(=O)c1c(C#N)[nH]c(-c2ccsc2)c1C(=O)OC`, greater than 100 µM.
Same read-out and setting: the same measure for `CC(=O)O[C@H]1CCC2[C@@H]3CCC4Nc5oncc5C[C@]4(C)C3CC[C@@]21C` (some centres undefined): greater than 10 µM; for `Cc1c(O)c(OC2OC(CO)C(O)C(O)C2O)cc2c1CC[C@@H]1C2(C)C(=O)C[C@]2(C)[C@@H]([C@@](C)(O)C(=O)CCC(C)(C)O)[C@H](O)C[C@@]12C` (some centres undefined): greater than 100 µM; for `Cc1cn(C2CC(O)C(CO[Si](C)(C)C(C)(C)C)OC2OC(C)C)c(=O)[nH]c1=O` (centres undefined): 93.9 µM.
Compound `O=c1oc2ccccc2cc1-c1cn2ccccc2n1` registered a TGI of 20.1 µM.
Still for that read-out and setting: for `COC(=O)[C@H](Cc1c[nH]c2ccccc12)NC(=O)c1ccc(CNC(=O)/C(C)=C/c2ccccc2)cc1` the value was 33.2 µM.

In a further experiment the test system is T-47D breast. The experiment can be described thus: NCI tumour cell line growth inhibition, 48 h.
`Cc1nn(C(=O)Cc2ccccc2)c2c1C(c1ccc(Cl)cc1)SC(N)=N2` (centres undefined) gave a TGI greater than 100 µM.
The same measure, in the same setting: for `C#CC(C)(C)OC(=O)C(=[N+]=[N-])C(C)=O` the value was greater than 10 µM.
On the same count and under the same terms, the same measure for `CCOC(=O)/C=C/[C@H](O[Si](CC)(CC)CC)C(C)(C)C`: greater than 100 µM; for `CC(C)N(C(=O)C1(O)c2ccccc2C=Cc2ccccc21)C(C)C`: 37.1 µM.
In turn, `COc1ccc2c(c1)nc1n2C(c2c(Cl)cccc2Cl)SC1` (centres undefined) displayed a TGI greater than 72.3 µM.
Still for that read-out and setting: for `CCCCCC(=O)CCCCCCCC(O)CC(=O)OCC` (centres undefined) the value was greater than 100 µM; for `CCCCSC1=N/C(=C\c2ccco2)C(Cl)=N1`, greater than 100 µM; for `CC(=O)O[C@H]1CC[C@@]2(C)C(=CC[C@@H]3[C@@H]2CC[C@]2(C)NC(=O)/C(=C\c4ccccc4)C[C@@H]32)C1`, 69.2 µM.
As to `O=C(CCc1cc(O)ccc1O)OCCc1ccccc1`, the TGI worked out at 64.8 µM.
The same measure, in the same setting: for `O=C(N[C@@H](c1ccccc1)[C@@H](O)C(=O)OCc1ccc([N+](=O)[O-])cc1)c1ccccc1` the value was greater than 100 µM; for `COC(=O)c1c(C#N)[nH]c(-c2ccsc2)c1C(=O)OC`, greater than 100 µM; for `CC(=O)O[C@H]1CCC2[C@@H]3CCC4Nc5oncc5C[C@]4(C)C3CC[C@@]21C` (some centres undefined), greater than 10 µM.
The same measure, in the same setting: the same measure for `Cc1c(O)c(OC2OC(CO)C(O)C(O)C2O)cc2c1CC[C@@H]1C2(C)C(=O)C[C@]2(C)[C@@H]([C@@](C)(O)C(=O)CCC(C)(C)O)[C@H](O)C[C@@]12C` (some centres undefined): greater than 100 µM; for `Cc1cn(C2CC(O)C(CO[Si](C)(C)C(C)(C)C)OC2OC(C)C)c(=O)[nH]c1=O` (centres undefined): greater than 100 µM.
Still for that read-out and setting: for `O=c1oc2ccccc2cc1-c1cn2ccccc2n1` the value was 34.6 µM; for `COC(=O)[C@H](Cc1c[nH]c2ccccc12)NC(=O)c1ccc(CNC(=O)/C(C)=C/c2ccccc2)cc1`, 27.7 µM.

The test system of a further experiment is TK-10 renal. Kind of experiment: NCI tumour cell line growth inhibition, 48 h.
The compound `Cc1nn(C(=O)Cc2ccccc2)c2c1C(c1ccc(Cl)cc1)SC(N)=N2` (centres undefined) displayed a TGI greater than 100 µM.
The same measure, in the same setting: the same measure for `C#CC(C)(C)OC(=O)C(=[N+]=[N-])C(C)=O`: greater than 10 µM; for `CCOC(=O)/C=C/[C@H](O[Si](CC)(CC)CC)C(C)(C)C`: greater than 100 µM; for `CC(C)N(C(=O)C1(O)c2ccccc2C=Cc2ccccc21)C(C)C`: 31.9 µM.
Same read-out and setting: the same measure for `COc1ccc2c(c1)nc1n2C(c2c(Cl)cccc2Cl)SC1` (centres undefined): greater than 100 µM; for `CCCCCC(=O)CCCCCCCC(O)CC(=O)OCC` (centres undefined): greater than 100 µM; for `CCCCSC1=N/C(=C\c2ccco2)C(Cl)=N1`: greater than 100 µM.
Same read-out and setting: the same measure for `CC(=O)O[C@H]1CC[C@@]2(C)C(=CC[C@@H]3[C@@H]2CC[C@]2(C)NC(=O)/C(=C\c4ccccc4)C[C@@H]32)C1`: 80.5 µM; for `O=C(CCc1cc(O)ccc1O)OCCc1ccccc1`: 27.8 µM.
Take `O=C(N[C@@H](c1ccccc1)[C@@H](O)C(=O)OCc1ccc([N+](=O)[O-])cc1)c1ccccc1`: the TGI is greater than 100 µM.
Consider `COC(=O)c1c(C#N)[nH]c(-c2ccsc2)c1C(=O)OC`, for which the TGI is greater than 100 µM.
Still for that read-out and setting: the same measure for `CC(=O)O[C@H]1CCC2[C@@H]3CCC4Nc5oncc5C[C@]4(C)C3CC[C@@]21C` (some centres undefined): greater than 10 µM; for `Cc1c(O)c(OC2OC(CO)C(O)C(O)C2O)cc2c1CC[C@@H]1C2(C)C(=O)C[C@]2(C)[C@@H]([C@@](C)(O)C(=O)CCC(C)(C)O)[C@H](O)C[C@@]12C` (some centres undefined): greater than 100 µM.
Still for that read-out and setting: for `Cc1cn(C2CC(O)C(CO[Si](C)(C)C(C)(C)C)OC2OC(C)C)c(=O)[nH]c1=O` (centres undefined) the value was greater than 100 µM.
Same read-out and setting: for `O=c1oc2ccccc2cc1-c1cn2ccccc2n1` the value was 20.5 µM; for `COC(=O)[C@H](Cc1c[nH]c2ccccc12)NC(=O)c1ccc(CNC(=O)/C(C)=C/c2ccccc2)cc1`, greater than 100 µM.
